Results published in patent US20110039721A1, “METHOD FOR PREDICTION ABOUT CARCINOGENICITY OF SUBSTANCE IN RODENT” (Chemicals Evaluation and Research Institute, priority 2007, published 2011).

Experiments:
[1] = tested on: mRNA expressed from the genes (A) to (D) in rat liver; assay: Behavior of genes (mRNA expression level, oligo-DNA microarray) in rat liver after 28-day oral administration; assay type: in vivo
Outline: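 Male F344 SPF rats, 5 weeks old, four per group, dosed by oral gavage once daily for 28 days with test chemical or matched-volume solvent. Liver total RNA profiled on oligo-DNA microarray. Change ≥1.5-fold or ≤1/1.5 versus vehicle counted as significant if its direction matched that seen with other carcinogens.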

liver = conditions: in vivo; cited from earlier work
rodent = conditions: in vivo; cited from earlier work
[2] = gene group (A), Unigene No. Rn.167075, mRNA vs vehicle control group
[3] = gene group (C), Unigene No. Rn.120914, mRNA vs vehicle control group
[4] = (C), Unigene Rn.120914, defined direction +, rat liver, oral once daily 28 days

Cc1c(N)cccc1N [TS005, 2,6-Diaminotoluene]
Cr−: Liver carcinogenicity (liver)
−: Behavior of gene caused by administration of chemical substance, Gene No. 4846 ([1]; gene group (A), Unigene No. Rn.144554, mRNA vs vehicle control group) | Behavior of gene caused by administration of chemical substance, Gene No. 2026 [1, 2] | Behavior of gene caused by administration of chemical substance, Gene No. 4218 [1, 2] | Behavior of gene caused by administration of chemical substance, Gene No. 6182 ([1]; gene group (A), Unigene No. Rn.5834, mRNA vs vehicle control group) | Behavior of gene caused by administration of chemical substance, Gene No. 5600 ([1]; gene group (A), Unigene No. Rn.9836, mRNA vs vehicle control group) | Behavior of gene caused by administration of chemical substance, Gene No. 1494 ([1]; gene group (B), Unigene No. Rn.1430, mRNA vs vehicle control group) | Behavior of gene caused by administration of chemical substance, Gene No. 2045 ([1]; gene group (B), Unigene No. Rn.19329, mRNA vs vehicle control group) | Behavior of gene caused by administration of chemical substance, Gene No. 2203 ([1]; gene group (B), Unigene No. Rn.21240, mRNA vs vehicle control group) | Behavior of gene caused by administration of chemical substance, Gene No. 533 ([1]; gene group (C), Unigene No. Rn.106184, mRNA vs vehicle control group) | Behavior of gene caused by administration of chemical substance, Gene No. 725 ([1]; gene group (C), Unigene No. Rn.108075, mRNA vs vehicle control group) | Behavior of gene caused by administration of chemical substance, Gene No. 1163 ([1]; gene group (C), Unigene No. Rn.11766, mRNA vs vehicle control group) | Behavior of gene caused by administration of chemical substance, Gene No. 4973 ([1]; gene group (C), Unigene No. Rn.118529, mRNA vs vehicle control group) | Behavior of gene caused by administration of chemical substance, Gene No. 4095 ([1]; gene group (C), Unigene No. Rn.119024, mRNA vs vehicle control group) | Behavior of gene caused by administration of chemical substance, Gene No. 1334 [1, 3] | Behavior of gene caused by administration of chemical substance, Gene No. 6620 [1, 3] | Behavior of gene caused by administration of chemical substance, Gene No. 6303 ([1]; gene group (C), Unigene No. Rn.123063, mRNA vs vehicle control group) | Behavior of gene caused by administration of chemical substance, Gene No. 5878 ([1]; gene group (C), Unigene No. Rn.143213, mRNA vs vehicle control group) | Behavior of gene caused by administration of chemical substance, Gene No. 1562 ([1]; gene group (C), Unigene No. Rn.14744, mRNA vs vehicle control group) | Behavior of gene caused by administration of chemical substance, Gene No. 1741 ([1]; gene group (C), Unigene No. Rn.1647, mRNA vs vehicle control group) | Behavior of gene caused by administration of chemical substance, Gene No. 893 ([1]; gene group (C), Unigene No. Rn.164817, mRNA vs vehicle control group) | Behavior of gene caused by administration of chemical substance, Gene No. 6026 ([1]; gene group (C), Unigene No. Rn.167685, mRNA vs vehicle control group) | Behavior of gene caused by administration of chemical substance, Gene No. 154 ([1]; gene group (C), Unigene No. Rn.185941, mRNA vs vehicle control group) | Behavior of gene caused by administration of chemical substance, Gene No. 1993 ([1]; gene group (C), Unigene No. Rn.18728, mRNA vs vehicle control group) | Behavior of gene caused by administration of chemical substance, Gene No. 813 ([1]; gene group (C), Unigene No. Rn.201760, mRNA vs vehicle control group) | Behavior of gene caused by administration of chemical substance, Gene No. 2494 ([1]; gene group (C), Unigene No. Rn.23969, mRNA vs vehicle control group) | Behavior of gene caused by administration of chemical substance, Gene No. 2546 ([1]; gene group (C), Unigene No. Rn.24561, mRNA vs vehicle control group) | Behavior of gene caused by administration of chemical substance, Gene No. 3776 ([1]; gene group (C), Unigene No. Rn.43232, mRNA vs vehicle control group) | Behavior of gene caused by administration of chemical substance, Gene No. 3929 ([1]; gene group (C), Unigene No. Rn.4620, mRNA vs vehicle control group) | Behavior of gene caused by administration of chemical substance, Gene No. 1119 ([1]; gene group (C), Unigene No. Rn.9757, mRNA vs vehicle control group) | Behavior of gene caused by administration of chemical substance, Gene No. 6742 ([1]; gene group (C), Unigene No. Rn.9779, mRNA vs vehicle control group) | Behavior of gene caused by administration of chemical substance, Gene No. 5634 ([1]; gene group (C), Unigene No. Rn.9862, mRNA vs vehicle control group) | Behavior of gene caused by administration of chemical substance, Gene No. 5726 ([1]; gene group (D), Unigene No. Rn.9939, mRNA vs vehicle control group)
+: Behavior of gene caused by administration of chemical substance, Gene No. 1131 ([1]; gene group (C), Unigene No. Rn.144946, mRNA vs vehicle control group)
C−: Carcinogenicity (rodent)

c1ccc2ncccc2c1 [TS006, Quinoline]
Cr+: Liver carcinogenicity (liver)
C+: Carcinogenicity (rodent)
−: Behavior of gene caused by administration of chemical substance, Gene No. 4218 ([1]; (A), Unigene Rn.167075, defined direction +, rat liver, oral once daily 28 days, significant = 1.5 times or more or 1/1.5 or less of control) | Behavior of gene caused by administration of chemical substance, Gene No. 6182 ([1]; (A), Unigene Rn.5834, defined direction +, rat liver, oral once daily 28 days) | Behavior of gene caused by administration of chemical substance, Gene No. 5600 ([1]; (A), Unigene Rn.9836, defined direction +, rat liver, oral once daily 28 days) | Behavior of gene caused by administration of chemical substance, Gene No. 2045 ([1]; (B), Unigene Rn.19329, defined direction +, rat liver, oral once daily 28 days) | Behavior of gene caused by administration of chemical substance, Gene No. 2203 ([1]; (B), Unigene Rn.21240, defined direction +, rat liver, oral once daily 28 days) | Behavior of gene caused by administration of chemical substance, Gene No. 533 ([1]; (C), Unigene Rn.106184, defined direction +, rat liver, oral once daily 28 days) | Behavior of gene caused by administration of chemical substance, Gene No. 725 ([1]; (C), Unigene Rn.108075, defined direction −, rat liver, oral once daily 28 days) | Behavior of gene caused by administration of chemical substance, Gene No. 1163 ([1]; (C), Unigene Rn.11766, defined direction +, rat liver, oral once daily 28 days) | Behavior of gene caused by administration of chemical substance, Gene No. 4973 ([1]; (C), Unigene Rn.118529, defined direction −, rat liver, oral once daily 28 days) | Behavior of gene caused by administration of chemical substance, Gene No. 4095 ([1]; (C), Unigene Rn.119024, defined direction −, rat liver, oral once daily 28 days) | Behavior of gene caused by administration of chemical substance, Gene No. 1334 [1, 4] | Behavior of gene caused by administration of chemical substance, Gene No. 6620 [1, 4] | Behavior of gene caused by administration of chemical substance, Gene No. 6303 ([1]; (C), Unigene Rn.123063, defined direction −, rat liver, oral once daily 28 days) | Behavior of gene caused by administration of chemical substance, Gene No. 5878 ([1]; (C), Unigene Rn.143213, defined direction −, rat liver, oral once daily 28 days) | Behavior of gene caused by administration of chemical substance, Gene No. 1131 ([1]; (C), Unigene Rn.144946, defined direction −, rat liver, oral once daily 28 days) | Behavior of gene caused by administration of chemical substance, Gene No. 1562 ([1]; (C), Unigene Rn.14744, defined direction −, rat liver, oral once daily 28 days) | Behavior of gene caused by administration of chemical substance, Gene No. 1741 ([1]; (C), Unigene Rn.1647, defined direction −, rat liver, oral once daily 28 days) | Behavior of gene caused by administration of chemical substance, Gene No. 893 ([1]; (C), Unigene Rn.164817, defined direction +, rat liver, oral once daily 28 days) | Behavior of gene caused by administration of chemical substance, Gene No. 6026 ([1]; (C), Unigene Rn.167685, defined direction −, rat liver, oral once daily 28 days) | Behavior of gene caused by administration of chemical substance, Gene No. 154 ([1]; (C), Unigene Rn.185941, defined direction −, rat liver, oral once daily 28 days) | Behavior of gene caused by administration of chemical substance, Gene No. 1993 ([1]; (C), Unigene Rn.18728, defined direction −, rat liver, oral once daily 28 days) | Behavior of gene caused by administration of chemical substance, Gene No. 2494 ([1]; (C), Unigene Rn.23969, defined direction +, rat liver, oral once daily 28 days) | Behavior of gene caused by administration of chemical substance, Gene No. 2546 ([1]; (C), Unigene Rn.24561, defined direction −, rat liver, oral once daily 28 days) | Behavior of gene caused by administration of chemical substance, Gene No. 3776 ([1]; (C), Unigene Rn.43232, defined direction −, rat liver, oral once daily 28 days) | Behavior of gene caused by administration of chemical substance, Gene No. 3929 ([1]; (C), Unigene Rn.4620, defined direction +, rat liver, oral once daily 28 days) | Behavior of gene caused by administration of chemical substance, Gene No. 1119 ([1]; (C), Unigene Rn.9757, defined direction +, rat liver, oral once daily 28 days) | Behavior of gene caused by administration of chemical substance, Gene No. 6742 ([1]; (C), Unigene Rn.9779, defined direction +, rat liver, oral once daily 28 days) | Behavior of gene caused by administration of chemical substance, Gene No. 5634 ([1]; (C), Unigene Rn.9862, defined direction −, rat liver, oral once daily 28 days) | Behavior of gene caused by administration of chemical substance, Gene No. 5726 ([1]; (D), Unigene Rn.9939, defined direction −, rat liver, oral once daily 28 days)
+: Behavior of gene caused by administration of chemical substance, Gene No. 4846 ([1]; (A), Unigene Rn.144554, defined direction +, rat liver, oral once daily 28 days) | Behavior of gene caused by administration of chemical substance, Gene No. 2026 ([1]; (A), Unigene Rn.167075, defined direction −, rat liver, oral once daily 28 days) | Behavior of gene caused by administration of chemical substance, Gene No. 1494 ([1]; (B), Unigene Rn.1430, defined direction −, rat liver, oral once daily 28 days) | Behavior of gene caused by administration of chemical substance, Gene No. 813 ([1]; (C), Unigene Rn.201760, defined direction +, rat liver, oral once daily 28 days)
